# Where “and” joins values, the source holds several entries; their conditions need not be identical. Equal values may be shown once.
# Experiments:
# [1] = tested on: H9c2 cardiomyoblasts; assay: MTT cytotoxicity assay, H9c2 cells; assay type: cell-based, rat; conditions: H9c2, 72 h/37°C, MTT; mean ± SD, n ≥ 4; read-out: IC50
# Procedure: (§1) For cytotoxicity experiments, cancer cells were seeded at a density of 5,000 (MCF-7), 10,000 (HL-60) or 2,000 cells/well (HCT116 and A549) in 96-well plates (TPP) for 24 h/37°C prior to the addition of examined agents. The non-cancerous cells, 3T3 and H9c2 cells, were cultured for 24 h/37°C in 96-well plates at a density of 10,000 cells/well, the medium was then changed to serum- and pyruvate-free DMEM (Sigma-Aldrich) and incubated with the cells for another 24 h/37°C. The cytotoxic effects of Bp4eT and its metabolites were studied at different concentrations after a 72 h/37°C incubation. In order to aid the dissolution of the lipophilic ligands, 0.1% dimethyl sulfoxide (v/v) (DMSO; Sigma-Aldrich) was present in the culture medium of all groups. At this concentration, DMSO had no effect on cellular proliferation or viability.
# (§2) The viability of cells were determined using an MTT assay (Sigma-Aldrich) according to previously established methods. The optical density of soluble MTT was measured at λ = 570 nm, subtracting the λ = 690 nm background using a Tecan Infinite 200M plate reader (Tecan Group, Männedorf, Switzerland). The viability or proliferation of experimental groups was expressed as a percentage of the untreated controls (100%).
# (§3) SigmaStat for Windows 3.5 (Systat Software, San Jose, CA, USA) statistical software package was utilized to analyze results. The data are expressed as the mean ± SD of a given number of experiments. Statistical significance was determined using a one-way ANOVA with a Bonferroni post-hoc test or Student’s t-test. The results were considered to be statistically significant when p < 0.05. The IC50 values were calculated using CalcuSyn 2.0 software (Biosoft, Cambridge, UK). Cell cycle analysis was evaluated using MultiCycle AV Software (Phoenix Flow Systems, San Diego, CA, USA).
# [2] = tested on: 3T3 mouse embryo fibroblasts; assay: MTT cytotoxicity assay, 3T3 cells; assay type: cell-based; conditions: Mus musculus, Fibroblast, 72 h, 3T3, 72 h; read-out: IC50
# Procedure: as §1, §2, §3
# [3] = tested on: cancer cells (HL-60, MCF-7, HCT116, A549) and non-cancerous cells (H9c2, 3T3); assay: MTT cytotoxicity assay, summary over the cell line panel; assay type: cell-based; conditions: HL-60, MCF-7, HCT116, A549; 72 h; read-out: IC50, range over cancer cells
# Procedure: as §1, §2, §3
# [4] = tested on: labile iron pool of MCF-7 cells; assay: Calcein-AM assay, access to the labile iron pool; assay type: cell-based, human; conditions: 10 μM, MCF-7, mean of 6 experiments
# Procedure: These experiments were performed according to Glickstein et al. with slight modifications. The MCF-7 cells were seeded in 96-well plates (10,000 cells/well) and allowed to adhere for 24 h/37°C. Cells were loaded with iron using the cellular iron donor, ferric ammonium citrate (530 μg/mL), 24 h prior to the experiment, and then washed. To prevent potential interference, especially with regard to various trace elements, the medium was replaced with ADS buffer (prepared using Millipore water supplemented with 116 mM NaCl, 5.3 mM KCl, 1 mM CaCl2, 1.2 mM MgSO4, 1.13 mM NaH2PO4, 5 mM D-glucose, and 20 mM HEPES, pH 7.4). Cells were then loaded with 2 μM of the cell-permeable calcein green acetoxymethyl ester (calcein-AM; Molecular Probes, Oregon, USA) for 30 min/37°C and washed. Cellular esterases cleave the acetoxymethyl groups to form the cell membrane-impermeable compound, calcein green. The fluorescence of calcein green is quenched upon binding iron. The intracellular fluorescence (λex = 488 nm; λem = 530 nm) of calcein green was then followed as a function of time (10 min after the addition of 10 μM Bp4eT or its metabolites) at 37°C using the Tecan Infinite 200M plate reader. The iron chelation efficacy of the metabolites in cells was expressed as a percentage of the efficacy of the parent chelator, Bp4eT (100%).
# [5] = tested on: MCF-7 cells; assay: Cellular 59Fe uptake from 59Fe2-transferrin; assay type: cell-based, human; conditions: 25 μM, 3 h/37°C, MCF-7, 0.75 μM 59Fe2-Tf
# Text: Human transferrin (Sigma) was labeled with ^56Fe or ^59Fe (PerkinElmer, Massachusetts, USA) to produce ^56Fe2-transferrin or ^59Fe2-transferrin (^59Fe2-Tf), respectively, with a final specific activity of 500 pCi/pmol Fe, as previously described. Unbound ^59Fe was removed by exhaustive vacuum dialysis against a large excess of 0.15 M NaCl buffered to pH 7.4 with 1.4% NaHCO3 by standard methods.
# The ability of the chelators to prevent cellular ^59Fe uptake from ^59Fe2-transferrin was examined using standard techniques. In brief, confluent MCF-7 cells in 6-well plates were incubated with 0.75 μM ^59Fe2-Tf for 3 h/37°C in the presence of Bp4eT or its metabolites (25 μM). The cells were then washed four times with ice-cold PBS and the level of internalized ^59Fe was determined by incubating the cell monolayer for 30 min/4°C with the general protease, Pronase (1 mg/mL; Sigma-Aldrich). The cells were then removed from the monolayer with a plastic spatula on ice and centrifuged for 1 min/12,000 x g/4°C. The supernatant represents membrane-bound, Pronase-sensitive ^59Fe that was released by the protease, while the Pronase-insensitive fraction represents internalized ^59Fe. The amount of internalized ^59Fe was expressed as a percentage of ^59Fe internalized by control (untreated) cells.
# [6] = parameters: method as in PMID 24254882; conditions: E and Z isomers, after Bp4eT; cited from earlier work
# [7] = Ascorbate oxidation assay (redox activity of iron complexes); assay type: biochemical; conditions: for %Fe 30min: ascorbate oxidation as % of the Fe control (Fe 100%): IBE 0.1, 30 min;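 on %Fe 30min (ascorbate oxidation, Fe 100%), průměr: IBE 3 means excess free chelator over iron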;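 on %Fe 30min (ascorbate oxidation, Fe 100%): IBE 3 means excess free chelator over iron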;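 on %Fe 30min: ascorbate oxidation as % of the Fe control (Fe 100%): IBE 0.1 means iron-binding equivalents with iron in excess over chelator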;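 on Change of absorbance, odečet 0 (time 0 subtracted), čas 10, průměr: IBE 3 means excess free chelator over 10 µM FeCl3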;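 on Change of absorbance, odečet 0 (time 0 subtracted), čas 10: IBE 3 means excess free chelator over 10 µM FeCl3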
# Procedure: The ascorbate oxidation assay was used to assess the redox activity of the iron complexes of the chelators using an established protocol. In brief, 100 μM ascorbic acid was prepared immediately prior to the experiment and incubated either alone or in the presence of 10 μM FeCl3 in a 50-fold molar excess (500 μM) of citrate and the chelators. Chelators were assayed at iron-binding equivalents (IBE) of 0.1 (excess of iron), 1 (fully coordinated iron—chelator complexes) and 3 (excess of free chelator). […] The decrease of absorbance between the two time points was calculated and expressed as a percentage of control without the chelator.
# [8] = tested on: cancer cells; parameters: method as in PMID 17602603, PMID 23074173, PMID 2758414, PMID 20036563; conditions: cited from earlier work
# [9] = sheet IBE 1, time 10, replicates
# [10] = sheet IBE 1, time 20, replicates
# [11] = sheet IBE 1, time 30, replicates
smiles,measurement,setting,value
"CCNC(=O)NN=C(c1ccccc1)c1ccccn1 [Bp4eS, 2-benzoylpyridine 4-ethylsemicarbazone]",IC50,[1],343 µM
same,IC50,[2],> 1000 µM
same,IC50,[3],46 to 536 µM
same,Chelation efficacy: fluorescence of free calcein at t = 600 s as percentage of Bp4eT,[4],≤ 1.0%
same,"Internalized 59Fe uptake, % of the control",[5],comparable to the untreated control
same,Concentration in plasma,[6],< 20 nM
"CC(=O)N(O)CCCCCNC(=O)CCC(=O)N(O)CCCCCNC(=O)CCC(=O)N(O)CCCCCN [DFO, deferoxamine, reference compound]",%Fe 30min: ascorbate oxidation as % of the Fe control (Fe 100%),[7]; mean (průměr),95.6%
same,%Fe 30min: ascorbate oxidation as % of the Fe control (Fe 100%),[7]; single wells,92.32% and 94.84% and 89.62% and 108.6% and 104.8% and 93.48%
same,Change of absorbance after subtraction of time 0 (odečet 0),"[7]; IBE 0.1, time 10, mean (průměr)",-0.0289
same,Change of absorbance after subtraction of time 0 (odečet 0),"[7]; IBE 0.1, time 20, mean (průměr)",-0.06128
same,Change of absorbance after subtraction of time 0 (odečet 0),"[7]; IBE 0.1, time 30, mean (průměr)",-0.09056
same,"Absorbance (ascorbate, λ = 265 nm)","[7]; IBE 0.1, čas 0 (time 0), mean (průměr)",0.8374
same,"Absorbance (ascorbate, λ = 265 nm)","[7]; IBE 0.1, čas 0 (time 0), single wells",0.8482 and 0.8386 and 0.8297 and 0.8393 and 0.8347 and 0.8423
same,"Absorbance (ascorbate, λ = 265 nm)","[7]; IBE 0.1, čas 10 (time 10), mean (průměr)",0.8085
same,"Absorbance (ascorbate, λ = 265 nm)","[7]; IBE 0.1, čas 10 (time 10), single wells",0.8014 and 0.8085 and 0.8061 and 0.8115 and 0.8174 and 0.8155
same,"Absorbance (ascorbate, λ = 265 nm)","[7]; IBE 0.1, čas 20 (time 20), mean (průměr)",0.7761
same,"Absorbance (ascorbate, λ = 265 nm)","[7]; IBE 0.1, čas 20 (time 20), single wells",0.7691 and 0.7765 and 0.7756 and 0.7789 and 0.7837 and 0.7797
same,"Absorbance (ascorbate, λ = 265 nm)","[7]; IBE 0.1, čas 30 (time 30), mean (průměr)",0.7468
same,"Absorbance (ascorbate, λ = 265 nm)","[7]; IBE 0.1, čas 30 (time 30), single wells",0.7397 and 0.7469 and 0.7473 and 0.7447 and 0.754 and 0.7546
same,"Ascorbate oxidation, % of the control",[7]; IBE 1,significant (p < 0.001) decrease
same,"Ascorbate oxidation, % of the control",[7]; IBE 3,significant (p < 0.001) decrease
same,"%Fe 30min (ascorbate oxidation, Fe = 100%), průměr (mean)","[7]; sheet IBE 1, 30min, Fe 100%, mean",34.33%
same,"%Fe 30min (ascorbate oxidation, Fe = 100%), single replicates","[7]; sheet IBE 1, 30min, Fe 100%, replicates",31.7% and 34.66% and 23.38% and 46.3% and 44.12% and 39.04%
same,"raw reading at čas 0 (time 0), průměr (mean)","[7]; sheet IBE 1, time 0, mean of 9 readings",0.8386
same,"raw reading at čas 0 (time 0), single replicates","[7]; sheet IBE 1, time 0, replicates of 2014-03-24 (two runs) and 2014-03-25",0.8558 and 0.8596 and 0.828 and 0.8361 and 0.827 and 0.8501
same,"odečet 0 (reading minus time 0 reading) at čas 10, průměr (mean)","[7]; sheet IBE 1, time 10, mean",-0.01
same,"raw reading at čas 10 (time 10), průměr (mean)","[7]; sheet IBE 1, time 10, mean of 9 readings",0.8286
same,"odečet 0 (reading minus time 0 reading) at čas 10, single replicates",[7]; [9],-0.00635 and -0.01167 and -0.00323 and -0.01849 and -0.01895 and -0.01001
same,"raw reading at čas 10 (time 10), single replicates",[7]; [9],0.8216 and 0.8244 and 0.8238 and 0.8316 and 0.8369 and 0.8496
same,"odečet 0 (reading minus time 0 reading) at čas 20, průměr (mean)","[7]; sheet IBE 1, time 20, mean",-0.0179
same,"raw reading at čas 20 (time 20), průměr (mean)","[7]; sheet IBE 1, time 20, mean of 9 readings",0.8207
same,"odečet 0 (reading minus time 0 reading) at čas 20, single replicates",[7]; [10],-0.01539 and -0.01649 and -0.00893 and -0.03069 and -0.02809 and -0.02068
same,"raw reading at čas 20 (time 20), single replicates",[7]; [10],0.8126 and 0.8196 and 0.8181 and 0.8194 and 0.8278 and 0.8389
same,"odečet 0 (reading minus time 0 reading) at čas 30, průměr (mean)","[7]; sheet IBE 1, time 30, mean",-0.0308
same,"raw reading at čas 30 (time 30), průměr (mean)","[7]; sheet IBE 1, time 30, mean of 9 readings",0.8078
same,"odečet 0 (reading minus time 0 reading) at čas 30, single replicates",[7]; [11],-0.02739 and -0.02994 and -0.0202 and -0.04369 and -0.04163 and -0.03684
same,"raw reading at čas 30 (time 30), single replicates",[7]; [11],0.8006 and 0.8061 and 0.8068 and 0.8064 and 0.8142 and 0.8227
same,"%Fe 30min (ascorbate oxidation, Fe 100%), průměr","[7]; sheet IBE 3, 30min, Fe alone = 100%, mean (průměr) of the 9 replicates",14.03%
same,"%Fe 30min (ascorbate oxidation, Fe 100%)","[7]; sheet IBE 3, 30min, Fe alone = 100%, single replicates",16.83% and 16.2% and 10.25% and 18.5% and 12.77% and 8.453%
same,"Change of absorbance, odečet 0 (time 0 subtracted), čas 10, průměr","[7]; sheet IBE 3, time 10 minus time 0, mean (průměr)",-0.00229
same,"Change of absorbance, odečet 0 (time 0 subtracted), čas 10","[7]; sheet IBE 3, time 10 minus time 0, single replicates",-0.00147 and -0.00159 and -0.00408 and -0.00649 and -0.00197 and 0.00214
same,"Change of absorbance, odečet 0 (time 0 subtracted), čas 20, průměr","[7]; sheet IBE 3, time 20 minus time 0, mean (průměr)",-0.00588
same,"Change of absorbance, odečet 0 (time 0 subtracted), čas 20","[7]; sheet IBE 3, time 20 minus time 0, single replicates",-0.00984 and -0.00475 and -0.00555 and -0.0054 and -0.00607 and -0.00117
same,"Change of absorbance, odečet 0 (time 0 subtracted), čas 30, průměr","[7]; sheet IBE 3, time 30 minus time 0, mean (průměr)",-0.01297
same,"Change of absorbance, odečet 0 (time 0 subtracted), čas 30","[7]; sheet IBE 3, time 30 minus time 0, single replicates",-0.01562 and -0.01504 and -0.00952 and -0.01694 and -0.01169 and -0.00774
same,IC50 values against cancer cells,[8],μM range
O=C(O)c1ccc(-n2nc(-c3ccccc3O)nc2-c2ccccc2O)cc1 [deferasirox],IC50 values against cancer cells,[8],μM range
